Measurements reported in patent US20110262451A1, “MODULATORS OF ISOVALERYL-COENZYME A DEHYDROGENASE IN THE TREATMENT OF ACNE, OF SEBORRHOEIC DERMATITIS OR OF HYPERSEBORRHOEA” (priority 2008, published 2011).

Tests used:
IVD = assay: qRT-PCR expression of IVD in rat sebaceous gland (epidermal split) after topical PPARgamma agonist; format: in vivo; details: topical 1% in acetone, T = 96 h, female FUZZY rat, relative induction versus carrier group, standardized to 18S
Method: (§1) • Strain: Ico: Hsd: FUZZY-fz • Gender: female • Age: 10 weeks Number per batch: 40 (8 animals per group) Treatment: Route of administration: topical • Compound/batch: PPARgamma agonist (rosiglitazone) • Doses: 1% • Carrier: acetone (001) • Duration 96 hours Method of evaluation: The animals are weighed at the beginning and at the end of the study. Skin biopsies are taken (6 samples of skin excised per rat) in order to analyze the expression of the genes (RNA extraction, reverse transcriptas and real-time PCR). The samples are stored overnight at 4° C. before incubation in 1M sodium bromide (NaBr) for 2 hours at 37° C. After incubation, the samples are separated into epidermis or dermis. The epidermal samples are stored at […] Under these conditions, the sebaceous glands are in the epidermal split. PCRs are carried out, beginning with the cDNAs originating from the epidermal splits containing sebaceous glands from control rats or rats treated with the PPARγ agonist: the mRNA is extracted using a column and quantified. The quality of the mRNAs is measured and is represented by the 18S/28S ratio. The results are standardized with respect to 18S expressed as relative induction versus untreated animals (carrier group). The statistical analysis is obtained using internal software based on a modified Monte Carlo statistical analysis.

PPARγ = assay: qRT-PCR expression of PPARγ in rat sebaceous gland (epidermal split) after topical PPARgamma agonist; format: in vivo; details: topical 1% in acetone, T = 96 h, female FUZZY rat, relative induction versus carrier group, standardized to 18S
Method: as §1

[1] = test system: isovaleryl-coenzyme A dehydrogenase; details: cited from earlier work

| SMILES | Induction factor (IVD) (IVD) | Induction factor (PPARγ) (PPARγ) | Inhibition of isovaleryl-coenzyme A dehydrogenase [1] |
| --- | --- | --- | --- |
| COCCOCOc1ccc2cc(C(=O)N(C)Cc3cccc(-c4ccc(CC5SC(=O)NC5=O)cc4)c3)ccc2c1 (stereo not drawn) [PPARgamma agonist, 6-(2-methoxyethoxy-methoxy)naphthalene-2-carboxylic acid [4′-(2,4-dioxothiazolidin-5-ylmethyl)biphenyl-3-ylmethyl]methyl-amide] | 0.11 | 0.11 | – |
| C=C1C[C@@H]1C[C@H](N)C(=O)O [hypoglycine A] | – | – | inhibitor |
